Laboratory results: patent US8314255B2, “Use of phthalimide and/or sulphonamide derivatives in the treatment of diseases which require reducing the TNF- α levels and an exogenous source of nitric oxide, phthalimide derivatives, sulphonamide derivatives, and a method for obtaining a sulphonamide derivative” (priority 2007, dated 2012)

Tests used:
[1] = system: leukocyte infiltration, peritonitis induced by thioglycolate; assay: Peritonitis assay induced by 3% thioglycolate; assay type: in vivo; conditions: 300 μMol/Kg orally, mouse, 3% thioglycolate i.p., 4 h
Experimental: In a second assay, the number of total leukocytes (10^6/mL) was evaluated in order to evaluate the ability to inhibit their infiltration in the inflammatory process.
The mice were treated with the substances being analyzed or carrier and after 1 h of oral administration, they were simultaneously subjected to the peritonitis assay, by administering intraperitoneally 1 ml of a 3% thioglycolate solution. 4 h after the administration of thioglycolate, the peritoneal cavity was washed with 3 ml of a HANKS solution (Balanced salt solution, free of Ca^2+ and Mg^2+). Next, the peritoneal wash was analyzed and the total counting of white blood cells was made in a Newbauer's chamber under an optical microscope with a 40× objective.

[2] = system: Salmonella typhimurium TA100; assay: AMES test, mutagenic evaluation in Salmonella typhimurium TA100 strain with/without metabolic activation (S9); assay type: cell-based
Experimental: (§1) The procedure was firstly developed by (MARON, D. M. and AMES, B. N. Mut. Res. v. 113, pp. 173-215, 1983)
(§2) For this assay, Salmonella typhimurium TA100 and TA102 strains from the mutagenicity laboratory of the “Faculdade de Ciências Farmacêuticas—UNESP Araraquara” were used. Such strains have the following characteristics: (AMES, 1983)
(§3) The positive controls are mutagenic compounds specific for each strain and test condition, with 25 μL/plate of sodium azide (1.25 μg/plate) and 100 μL of mitomycin (0.5 μg/plate) being the controls for TA100 and TA102, respectively, in the absence of metabolic activation. For assays with metabolic activation, the positive control for TA100 is 50 μL 2-antramine (1.25 μg/plate) and for TA102 it is 50 μL 2-aminofluorene (1.25 μg/plate).
(§4) The preincubation method was used.
(§5) In laminar flow, Salmonella typhimurium (TA100 and TA 102) strains were inoculated individually with a platinum loop, in the respective nutrient broths and maintained at 37° C., under constant stirring (160 rpm) during 14 hours, in order to achieve a density of 1 to 2×10^9 bacteria/mL.
(§6) Different concentrations of the compounds were added into 100 μL of 0.2M phosphate buffer pH 7.4 (or 500 μL of the mixture S9 in metabolic activation assays) and incubated for 20-30 minutes at 37° C. Solutions containing the compounds had DMSO as the solvent. Thereafter, 2 mL of top agar supplemented with traces of histidine and biotin was added, homogenized and plated in glycosylated minimum medium. After solidification of the top agar, the plates were incubated for 48 hours at a 37° C. Then, the counting of the number of revertant colonies per plate was performed. All tested concentrations, positive and negative controls were run in triplicate.
(§7) After 48 hours, the revertant colonies were counted manually, and the protoCOL Colony Counter Version 3.15.630 (1998-2001) SYNBIOSIS LTD system was used for the positive control.
(§8) The final data obtained from the assay was analyzed using the statistical software Salanal (Salmonella Assay Analysis) version 1.0 from the Research Triangle Institute, RTP, North Carolina, USA. Such software allows the dose-response effect to be evaluated by means of analysis of variance (ANOVA-test F) computations between the measurement of the number of revertants at the different tested concentrations (doses) and the negative control, followed by a linear regression. The software model chosen for analyzing the data was Bernstein's (BERNSTEIN, L. et al. Mutat. Res. v. 97, p. 267-281, 1982). The slope of the straight line from the linear portion of the dose-response curve is also provided by this software and corresponds to the number of revertants induced per measurement unit of the analyzed sample.
(§9) From the results, the mutagenicity ratio (MR) was computed for each analyzed dose from each compound. MR is given by the following equation:
(§10) MR=average number of revertants per test plate (spontaneous+induced revertants) […] average number of revertants per plate of the negative control (spontaneous revertants)
(§11) The spontaneous growing means that the number of revertants which developed on the plate, regardless of being induced or not, wherein values higher or equal to 2 are considered as a positive response (VALENT, G. V. et al. Env. Toxicol. Water Quality. v. 8, p. 371-381, 1993).
(§12) The mutagenicity test with metabolic activation system was performed with a microsomal fraction S9 (S9 mix) prepared from a liver homogenizate from Sprague Dawley rats, previously treated with Aroclor 1254, acquired in the freeze-dried form.
(§13) The procedure for this assay is the same, however, instead of the buffer, 500 μL of the S9 mixture should be added.
(§14) The S9 mixture has a viability of 4 hours from preparation when put on ice. The plates are then incubated for 48 hours at 37° C. After the required time has elapsed, the counting of the revertant colonies was carried out. All tested concentrations, positive and negative controls were run in triplicate.

[3] = system: Salmonella typhimurium TA102; assay: AMES test, mutagenic evaluation in Salmonella typhimurium TA102 strain with/without metabolic activation (S9); assay type: cell-based
Experimental: as §1, §2, §3, §4, §5, §6, §7, §8, §9, §10, §11, §12, §13, §14

gamma-globin mRNA = conditions: 48 hours, data in the literature; cited from earlier work

## O=C1c2ccccc2C(=O)N1c1cccc(CO[N+](=O)[O-])c1 [Compound IC, 3-(1,3-dioxo-1,3-dihydro-2H-isoindol-2-yl)benzyl nitrate]
[1]
  Cell Number avg (×106), total leukocytes: 3.2 ×106
  Inhibition % (leukocyte infiltrate): 42.85%
[2]; TA 100, +S9, 0.224 μmol/plate
  mutagenicity ratio (MR): 1.27
  number of revertants per plate: 165 ± 13.2 revertants/plate
[2]; TA 100, +S9, 0.488 μmol/plate
  mutagenicity ratio (MR): 1.18
  number of revertants per plate: 153 ± 13.1 revertants/plate
[2]; TA 100, +S9, 0.896 μmol/plate
  mutagenicity ratio (MR): 1.12
  number of revertants per plate: 146 ± 5 revertants/plate
[2]; TA 100, +S9, 1.8 μmol/plate
  mutagenicity ratio (MR): 1.26
  number of revertants per plate: 163 ± 22.5 revertants/plate
[2]; TA 100, +S9, 3.58 μmol/plate
  mutagenicity ratio (MR): 1.22
  number of revertants per plate: 158.3 ± 9.3 revertants/plate
[2]; TA 100, −S9, 0.224 μmol/plate
  mutagenicity ratio (MR): 1.21
  number of revertants per plate: 216.7 ± 10.2 revertants/plate
[2]; TA 100, −S9, 0.488 μmol/plate
  mutagenicity ratio (MR): 1.25
  number of revertants per plate: 224.5 ± 24.6 revertants/plate
[2]; TA 100, −S9, 0.896 μmol/plate
  mutagenicity ratio (MR): 1.48
  number of revertants per plate: 266.3 ± 8.4 revertants/plate
[2]; TA 100, −S9, 1.8 μmol/plate
  mutagenicity ratio (MR): 1.34
  number of revertants per plate: 239.7 ± 11.3 revertants/plate
[2]; TA 100, −S9, 3.58 μmol/plate
  mutagenicity ratio (MR): 1.8
  number of revertants per plate: 323.7 ± 10.2 revertants/plate
[2]; TA100 and TA102, with and without S9, at the concentrations used
  mutagenicity (AMES test, overall): did not show mutagenicity
[3]; TA 102, +S9, 0.224 μmol/plate
  mutagenicity ratio (MR): 0.73
  number of revertants per plate: 272 ± 26 revertants/plate
[3]; TA 102, +S9, 0.488 μmol/plate
  mutagenicity ratio (MR): 1.01
  number of revertants per plate: 378 ± 6.1 revertants/plate
[3]; TA 102, +S9, 0.896 μmol/plate
  mutagenicity ratio (MR): 1.09
  number of revertants per plate: 405 ± 11 revertants/plate
[3]; TA 102, +S9, 1.8 μmol/plate
  mutagenicity ratio (MR): 1.07
  number of revertants per plate: 399.3 ± 40 revertants/plate
[3]; TA 102, +S9, 3.58 μmol/plate
  mutagenicity ratio (MR): 1.15
  number of revertants per plate: 431 ± 17.9 revertants/plate
[3]; TA 102, −S9, 0.224 μmol/plate
  mutagenicity ratio (MR): 1.10
  number of revertants per plate: 281 ± 25 revertants/plate
[3]; TA 102, −S9, 0.488 μmol/plate
  mutagenicity ratio (MR): 1.12
  number of revertants per plate: 286 ± 4.2 revertants/plate
[3]; TA 102, −S9, 0.896 μmol/plate
  mutagenicity ratio (MR): 1.19
  number of revertants per plate: 303 ± 9.2 revertants/plate
[3]; TA 102, −S9, 1.8 μmol/plate
  mutagenicity ratio (MR): 1.55
  number of revertants per plate: 395.7 ± 9 revertants/plate
[3]; TA 102, −S9, 3.58 μmol/plate
  mutagenicity ratio (MR): 1.52
  number of revertants per plate: 387 ± 9.7 revertants/plate

## NC(=O)NO [HU, Hydroxyurea]
gamma-globin mRNA
  concentration producing comparable activity on gamma-globin expression: 10 µM
